Patent US20180273531A1, “PYRIMIDINE COMPOUND AND MEDICAL USE THEREOF” (Japan Tobacco Inc., priority 2004, published 2018)

These compounds were tested on ACHN cells or HT-29 cells (assay: Cell cycle analysis (flow cytometry, CycleTEST PLUS)). Conditions: test substance less than 10 μM, 24 hrs, compared to DMSO, n=2, read-out: CELL RATIO OF G0/G1 PHASE.
Format: cell-based
Description: ACHN cells or HT-29 cells were cultured in a 6 well plate at 2.5×10^5 cells/1.8 mL/well for 24 hrs, then a test substance (less than 10 μM) dissolved in DMSO was added. After 24 hrs, cells were detached using trypsin-EDTA and the DNA content of single cell was analyzed by flow cytometry method using a CycleTEST PLUS (BECKTON DICKINSON) kit, and the proportion of the cells in the G0/G1 phase·S phase·G2/M phase was calculated. As a control, DMSO was used and the test was performed with n=2.

`COc1ccc(Nc2cc(=O)n(C)c3c2c(=O)n(-c2ccccc2)c(=O)n3-c2ccccc2)cc1` [Example 1-9] was tested. Which fold induction did it give?
The fold induction was at least 1.2.

`CCc1ccc(Nc2cc(=O)n(C)c3c2c(=O)n(-c2ccccc2)c(=O)n3-c2ccccc2)cc1` [Example 1-21] was tested. Which fold induction did it give?
Its fold induction is at least 1.2.

Which fold induction does the source give for `CC(C)c1ccc(Nc2cc(=O)n(C)c3c2c(=O)n(-c2ccccc2)c(=O)n3-c2ccccc2)cc1` [Example 1-25] here?
The fold induction was at least 1.2.

With `Cn1c(=O)cc(Nc2ccc(Cl)cc2Cl)c2c(=O)n(-c3ccccc3)c(=O)n(-c3ccccc3)c21` [Example 1-26] as the compound, how does the fold induction read?
The fold induction was at least 1.2.

`Cn1c(=O)cc(Nc2ccc(C(F)(F)F)cc2)c2c(=O)n(-c3ccccc3)c(=O)n(-c3ccccc3)c21` [Example 1-33] was tested. Which fold induction did it give?
Its fold induction is at least 1.2.

How did the fold induction turn out when `Cc1ccc(Nc2cc(=O)n(C)c3c2c(=O)n(-c2ccccc2)c(=O)n3-c2ccccc2)c(Cl)c1` [Example 1-34] was run?
Its fold induction is at least 1.2.

How did the fold induction turn out when `CCc1ccccc1Nc1cc(=O)n(C)c2c1c(=O)n(-c1ccccc1)c(=O)n2-c1ccccc1` [Example 1-38] was run?
The fold induction was at least 1.2.

For `Cc1c(Nc2ccc(Cl)cc2)c2c(=O)n(-c3ccccc3)c(=O)n(-c3ccccc3)c2n(C)c1=O` [Example 1-43], which fold induction is on record?
The fold induction was at least 1.2.

With `CNc1ccc(Nc2cc(=O)n(C)c3c2c(=O)n(-c2ccccc2)c(=O)n3-c2ccccc2)cc1` [Example 1-49] as the compound, how does the fold induction read?
Its fold induction is at least 1.2.

Which fold induction does the source give for `CCCc1ccccc1Nc1cc(=O)n(C)c2c1c(=O)n(-c1ccccc1)c(=O)n2-c1ccccc1` [Example 1-50] here?
The fold induction was at least 1.2.

`CCCCc1ccccc1Nc1cc(=O)n(C)c2c1c(=O)n(-c1ccccc1)c(=O)n2-c1ccccc1` [Example 1-51] was tested. Which fold induction did it give?
Its fold induction is at least 1.2.

Which fold induction does the source give for `Cn1c(=O)cc(Nc2ccc(Cl)cc2)c2c(=O)n(-c3ccsc3)c(=O)n(-c3ccsc3)c21` [Example 1-77] here?
The fold induction was at least 1.2.

How did the fold induction turn out when `CCn1c(=O)c2c(Nc3ccc(Cl)cc3)cc(=O)n(C)c2n(-c2ccccc2)c1=O` [Example 1-78] was run?
The fold induction was at least 1.2.

How did the fold induction turn out when `Cn1c(=O)cc(Nc2ccc(Cl)cc2)c2c(=O)n(C3CC3)c(=O)n(-c3ccccc3)c21` [Example 1-84] was run?
The fold induction was at least 1.2.

With `Cc1ccccc1-n1c(=O)n(C)c(=O)c2c(Nc3ccc(Cl)cc3)cc(=O)n(C)c21` [Example 1-85] as the compound, how does the fold induction read?
The fold induction was at least 1.2.

How did the fold induction turn out when `Cn1c(=O)cc(Nc2ccc(Cl)cc2)c2c(=O)n(CC(F)(F)F)c(=O)n(-c3ccccc3)c21` [Example 1-90] was run?
The fold induction was at least 1.2.

How did the fold induction turn out when `CCCc1c(Nc2ccc(Cl)cc2)c2c(=O)n(-c3ccccc3)c(=O)n(-c3ccccc3)c2n(C)c1=O` [Example 1-91] was run?
Its fold induction is at least 1.2.

Which fold induction does the source give for `Cn1c(=O)cc(Nc2ccc(Cl)cc2)c2c(=O)n(C3CC3)c(=O)n(-c3ccccc3C(F)(F)F)c21` [Example 1-101] here?
Its fold induction is at least 1.2.

What follows are compounds tested on p15 protein (assay: Evaluation of p15 induction activity (Western blotting)). Conditions: test substance 0.1 μM, 24 hrs, ACHN cells or HT-29 cells, compared to DMSO, n=2.
Format: cell-based
Summary of the method: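 p15 protein quantified by densitometry of anti-p15 Western blots (10 μg protein per lane, mean of n=2). Samples came from HT-29 or ACHN cells given 0.1 μM compound for 24 h after 24 h plating, with DMSO as control.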

Which fold induction at 0.1 µM does the source give for `COc1ccc(Nc2cc(=O)n(C)c3c2c(=O)n(-c2ccccc2)c(=O)n3-c2ccccc2)cc1` [Example 1-9] here?
The fold induction at 0.1 µM was at least 1.5.

For `Cn1c(=O)cc(Nc2ccc(Cl)cc2Cl)c2c(=O)n(-c3ccccc3)c(=O)n(-c3ccccc3)c21` [Example 1-26], which fold induction at 0.1 µM is on record?
Its fold induction at 0.1 µM is at least 1.5.

How did the fold induction at 0.1 µM turn out when `Cn1c(=O)cc(Nc2ccc(C(F)(F)F)cc2)c2c(=O)n(-c3ccccc3)c(=O)n(-c3ccccc3)c21` [Example 1-33] was run?
The fold induction at 0.1 µM was at least 1.5.

`Cc1ccc(Nc2cc(=O)n(C)c3c2c(=O)n(-c2ccccc2)c(=O)n3-c2ccccc2)c(Cl)c1` [Example 1-34] was tested. Which fold induction at 0.1 µM did it give?
The fold induction at 0.1 µM was at least 1.5.

For `CCc1ccccc1Nc1cc(=O)n(C)c2c1c(=O)n(-c1ccccc1)c(=O)n2-c1ccccc1` [Example 1-38], which fold induction at 0.1 µM is on record?
The fold induction at 0.1 µM was at least 1.5.

For `Cc1c(Nc2ccc(Cl)cc2)c2c(=O)n(-c3ccccc3)c(=O)n(-c3ccccc3)c2n(C)c1=O` [Example 1-43], which fold induction at 0.1 µM is on record?
The fold induction at 0.1 µM was at least 1.5.

How did the fold induction at 0.1 µM turn out when `CNc1ccc(Nc2cc(=O)n(C)c3c2c(=O)n(-c2ccccc2)c(=O)n3-c2ccccc2)cc1` [Example 1-49] was run?
The fold induction at 0.1 µM was at least 1.5.

With `CCCCc1ccccc1Nc1cc(=O)n(C)c2c1c(=O)n(-c1ccccc1)c(=O)n2-c1ccccc1` [Example 1-51] as the compound, how does the fold induction at 0.1 µM read?
Its fold induction at 0.1 µM is at least 1.5.

How did the fold induction at 0.1 µM turn out when `Cn1c(=O)cc(Nc2ccc(Cl)cc2)c2c(=O)n(-c3ccsc3)c(=O)n(-c3ccsc3)c21` [Example 1-77] was run?
The fold induction at 0.1 µM was at least 1.5.

`CCn1c(=O)c2c(Nc3ccc(Cl)cc3)cc(=O)n(C)c2n(-c2ccccc2)c1=O` [Example 1-78] was tested. Which fold induction at 0.1 µM did it give?
The fold induction at 0.1 µM was at least 1.5.

For `Cn1c(=O)cc(Nc2ccc(Cl)cc2)c2c(=O)n(C3CC3)c(=O)n(-c3ccccc3)c21` [Example 1-84], which fold induction at 0.1 µM is on record?
Its fold induction at 0.1 µM is at least 1.5.

Which fold induction at 0.1 µM does the source give for `Cc1ccccc1-n1c(=O)n(C)c(=O)c2c(Nc3ccc(Cl)cc3)cc(=O)n(C)c21` [Example 1-85] here?
The fold induction at 0.1 µM was at least 1.5.
